# Measured values published in the supplement of paper PMC8149375.
# How the values were obtained:
# Details in all cases: treatment: drug + dasatinib (fixed dose, not stated); 5 days
# 769-P [1] = test: GI50 of drug in presence of dasatinib; higher = less potent
# Experimental: (§1)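 Primary HTS combination arm: 8 RCC cell lines treated with 8 doses (up to 10 uM) of each library drug plus a fixed dose of dasatinib (dose not stated) for 5 days; viability read by CellTiter-Glo and normalised to DMSO. GI50 was fitted with XLfit, AUC is the area under the dose-response curve, and minimum viability is the lowest fraction of DMSO viability across doses.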
# 786-O [2] = test: as above
# Experimental: as §1
# A498 [3] = test: as above
# Experimental: as §1
# ACHN [4] = test: as above
# Experimental: as §1
# CAKI-1 [5] = test: as above
# Experimental: as §1
# SN12C [6] = test: as above
# Experimental: as §1
# TK-10 [7] = test: as above
# Experimental: as §1
# UO-31 [8] = test: as above
# Experimental: as §1
# 769-P [9] = test: minimum viability across doses, drug + dasatinib, relative to DMSO (fraction); higher = less growth inhibition
# Experimental: as §1
# 786-O [10] = test: as above
# Experimental: as §1
# A498 [11] = test: as above
# Experimental: as §1
# ACHN [12] = test: as above
# Experimental: as §1
# CAKI-1 [13] = test: as above
# Experimental: as §1
# SN12C [14] = test: as above
# Experimental: as §1
# TK-10 [15] = test: as above
# Experimental: as §1
# UO-31 [16] = test: as above
# Experimental: as §1
# 769-P [17] = test: AUC of dose-response viability curve, drug + dasatinib, normalised to DMSO (arbitrary (AUC of normalised viability)); higher = less growth inhibition
# Experimental: as §1
# 786-O [18] = test: as above
# Experimental: as §1
# A498 [19] = test: as above
# Experimental: as §1
# ACHN [20] = test: as above
# Experimental: as §1
# CAKI-1 [21] = test: as above
# Experimental: as §1
# SN12C [22] = test: as above
# Experimental: as §1
# TK-10 [23] = test: as above
# Experimental: as §1
# UO-31 [24] = test: as above
# Experimental: as §1
GI50 of drug (786-O [2]),GI50 of drug (ACHN [4]),SMILES,GI50 of drug (769-P [1]),GI50 of drug (A498 [3]),GI50 of drug (CAKI-1 [5]),GI50 of drug (SN12C [6]),GI50 of drug (TK-10 [7]),GI50 of drug (UO-31 [8]),minimum viability across doses (769-P [9]),minimum viability across doses (786-O [10]),minimum viability across doses (A498 [11]),minimum viability across doses (ACHN [12]),minimum viability across doses (CAKI-1 [13]),minimum viability across doses (SN12C [14]),minimum viability across doses (TK-10 [15]),minimum viability across doses (UO-31 [16]),AUC of dose-response viability curve (769-P [17]),AUC of dose-response viability curve (786-O [18]),AUC of dose-response viability curve (A498 [19]),AUC of dose-response viability curve (ACHN [20]),AUC of dose-response viability curve (CAKI-1 [21]),AUC of dose-response viability curve (SN12C [22]),AUC of dose-response viability curve (TK-10 [23]),AUC of dose-response viability curve (UO-31 [24])
571 nM,32 nM,COc1cc(Nc2ncc(F)c(Nc3ccc4c(n3)NC(=O)C(C)(C)O4)n2)cc(OC)c1OC [R406(free base)] + Cc1nc(Nc2ncc(C(=O)Nc3c(C)cccc3Cl)s2)cc(N2CCN(CCO)CC2)n1 [dasatinib],1530 nM,> 10 µM,231 nM,1.39 µM,1.38 µM,1.61 µM,0.13,0.168,0.591,0.0361,0.0291,0.189,0.348,0.0124,2.08,1.77,3.18,1.11,1.54,2.05,2.19,3.16
724 nM,173 nM,COc1cc(Nc2ncc(F)c(Nc3ccc4c(n3)NC(=O)C(C)(C)O4)n2)cc(OC)c1OC.O=S(=O)(O)c1ccccc1 [R406] + Cc1nc(Nc2ncc(C(=O)Nc3c(C)cccc3Cl)s2)cc(N2CCN(CCO)CC2)n1 [dasatinib],2200 nM,> 10 µM,240 nM,0.908 µM,1.58 µM,1.57 µM,0.139,0.232,0.675,0.0817,0.0338,0.235,0.347,0.0103,2.23,1.91,3.28,1.71,1.53,2.04,2.22,2.12
366 nM,183 nM,COc1cc(Nc2ncc(F)c(Nc3ccc4c(n3)N(COP(=O)(O)O)C(=O)C(C)(C)O4)n2)cc(OC)c1OC [R788 (Fostamatinib)] + Cc1nc(Nc2ncc(C(=O)Nc3c(C)cccc3Cl)s2)cc(N2CCN(CCO)CC2)n1 [dasatinib],993 nM,> 10 µM,195 nM,0.983 µM,0.963 µM,2.4 µM,0.0614,0.199,0.61,0.04,0.00427,0.179,0.254,0.0153,2,1.88,3.69,1.45,1.47,2.02,2.16,3.58
5020 nM,3300 nM,FC(F)(F)c1ccc(Nc2nc3cc(Oc4ccnc(-c5ncc(C(F)(F)F)[nH]5)c4)ccc3[nH]2)cc1 [Raf265 derivative] + Cc1nc(Nc2ncc(C(=O)Nc3c(C)cccc3Cl)s2)cc(N2CCN(CCO)CC2)n1 [dasatinib],5010 nM,> 10 µM,3550 nM,> 10 µM,9.07 µM,> 10 µM,0.318,0.241,0.633,0.137,0.173,0.484,0.476,0.551,2.37,2.47,3.35,2.21,2.35,2.47,2.73,3.44
4900 nM,3630 nM,"CC[C@H](CO)Nc1nc(NCc2ccccc2)c2ncn(C(C)C)c2n1 [Roscovitine (Seliciclib, CYC202)] + Cc1nc(Nc2ncc(C(=O)Nc3c(C)cccc3Cl)s2)cc(N2CCN(CCO)CC2)n1 [dasatinib]",> 10000 nM,> 10 µM,> 10000 nM,> 10 µM,> 10 µM,9.07 µM,0.595,0.259,0.847,0.266,0.514,0.669,0.675,0.272,2.52,2.32,3.29,2.15,2.54,2.52,2.74,3.04

# The next lines start with the compound.
SMILES,GI50 of drug (786-O [2]),GI50 of drug (ACHN [4]),GI50 of drug (769-P [1]),GI50 of drug (A498 [3]),GI50 of drug (CAKI-1 [5]),GI50 of drug (SN12C [6]),GI50 of drug (TK-10 [7]),GI50 of drug (UO-31 [8]),minimum viability across doses (769-P [9]),minimum viability across doses (786-O [10]),minimum viability across doses (A498 [11]),minimum viability across doses (ACHN [12]),minimum viability across doses (CAKI-1 [13]),minimum viability across doses (SN12C [14]),minimum viability across doses (TK-10 [15]),minimum viability across doses (UO-31 [16]),AUC of dose-response viability curve (769-P [17]),AUC of dose-response viability curve (786-O [18]),AUC of dose-response viability curve (A498 [19]),AUC of dose-response viability curve (ACHN [20]),AUC of dose-response viability curve (CAKI-1 [21]),AUC of dose-response viability curve (SN12C [22]),AUC of dose-response viability curve (TK-10 [23]),AUC of dose-response viability curve (UO-31 [24])
Nc1ncnc2c1c(-c1cnc3[nH]ccc3c1)nn2C1CCCC1 [PP-121] + Cc1nc(Nc2ncc(C(=O)Nc3c(C)cccc3Cl)s2)cc(N2CCN(CCO)CC2)n1 [dasatinib],73.8 nM,132 nM,415 nM,1.27 µM,126 nM,0.337 µM,0.261 µM,0.896 µM,0.0299,0.00453,0.0684,0.0126,0.00718,0.0517,0.0102,0.00907,1.74,1.44,2.5,1.41,1.41,1.73,1.67,2.71
COc1ccc(COc2cc3oc(=O)c4cc(C(C)O)ccc4c3cc2OC)cc1 (stereo unspecified) [Palomid 529] + Cc1nc(Nc2ncc(C(=O)Nc3c(C)cccc3Cl)s2)cc(N2CCN(CCO)CC2)n1 [dasatinib],2960 nM,> 10000 nM,6220 nM,> 10 µM,5940 nM,> 10 µM,> 10 µM,> 10 µM,0.415,0.324,0.857,0.539,0.414,0.707,0.635,1.17,2.29,2.05,3.49,2.1,2.25,2.53,2.53,4.61
Cc1ccc(Nc2nccc(N(C)c3ccc4c(C)n(C)nc4c3)n2)cc1S(N)(=O)=O.Cl [Pazopanib HCl] + Cc1nc(Nc2ncc(C(=O)Nc3c(C)cccc3Cl)s2)cc(N2CCN(CCO)CC2)n1 [dasatinib],< 3 nM,1340 nM,8320 nM,> 10 µM,925 nM,3.1 µM,8.59 µM,8.02 µM,0.123,0.277,0.522,0.175,0.0765,0.327,0.469,0.248,2.22,2.29,3.16,2.13,1.86,2.37,2.54,3.27
CCOc1cc2ncc(C#N)c(Nc3ccc(F)c(Cl)c3)c2cc1NC(=O)/C=C/CN(C)C [Pelitinib (EKB-569)] + Cc1nc(Nc2ncc(C(=O)Nc3c(C)cccc3Cl)s2)cc(N2CCN(CCO)CC2)n1 [dasatinib],404 nM,7.21 nM,48.4 nM,1.08 µM,60.6 nM,0.864 µM,0.0611 µM,0.216 µM,0.0321,0.00483,0.0177,0.00232,0.0303,0.00631,0.00649,0.0179,1.38,1.79,2.55,0.845,1.17,1.78,1.43,1.8
Cl.N=C(N)NC(=N)NCCc1ccccc1 [Phenformin hydrochloride] + Cc1nc(Nc2ncc(C(=O)Nc3c(C)cccc3Cl)s2)cc(N2CCN(CCO)CC2)n1 [dasatinib],1060 nM,3140 nM,> 10000 nM,> 10 µM,> 10000 nM,4.33 µM,5.02 µM,4.39 µM,0.623,0.115,0.676,0.357,0.578,0.114,0.315,0.194,2.41,1.84,3.25,2.08,2.28,2.36,2.35,2.83
Br.Cc1ccc(C(=O)Cn2c3c(sc2=N)CCCC3)cc1 [Pifithrin-α] + Cc1nc(Nc2ncc(C(=O)Nc3c(C)cccc3Cl)s2)cc(N2CCN(CCO)CC2)n1 [dasatinib],> 10000 nM,3780 nM,> 10000 nM,> 10 µM,> 10000 nM,> 10 µM,> 10 µM,> 10 µM,0.696,0.535,0.901,0.391,0.529,0.656,0.59,0.998,2.63,2.26,3.57,2.03,2.13,2.53,2.3,4.02
Nc1cccc2c1C(=O)N(C1CCC(=O)NC1=O)C2=O (stereo unspecified) [Pomalidomide] + Cc1nc(Nc2ncc(C(=O)Nc3c(C)cccc3Cl)s2)cc(N2CCN(CCO)CC2)n1 [dasatinib],> 10000 nM,> 10000 nM,> 10000 nM,> 10 µM,> 10000 nM,> 10 µM,> 10 µM,> 10 µM,0.65,0.617,0.857,0.542,0.642,0.711,0.639,0.868,2.65,2.67,3.27,2.15,2.38,2.58,2.5,3.3
O=c1c(O)c(-c2ccc(O)c(O)c2)oc2cc(O)cc(O)c12 [Quercetin (Sophoretin)] + Cc1nc(Nc2ncc(C(=O)Nc3c(C)cccc3Cl)s2)cc(N2CCN(CCO)CC2)n1 [dasatinib],> 10000 nM,> 10000 nM,> 10000 nM,> 10 µM,> 10000 nM,> 10 µM,> 10 µM,> 10 µM,0.618,0.45,0.879,0.56,0.576,0.692,0.67,0.844,2.42,1.89,3.26,2.14,2.35,2.52,2.47,3.51
CC(C)(C)c1cc(NC(=O)Nc2ccc(-c3cn4c(n3)sc3cc(OCCN5CCOCC5)ccc34)cc2)no1 [Quizartinib (AC220)] + Cc1nc(Nc2ncc(C(=O)Nc3c(C)cccc3Cl)s2)cc(N2CCN(CCO)CC2)n1 [dasatinib],1560 nM,2020 nM,2370 nM,6.27 µM,1080 nM,> 10 µM,> 10 µM,> 10 µM,0.432,0.256,0.115,0.315,0.378,0.627,0.622,0.859,2.19,2.25,2.87,1.89,2.02,2.29,2.54,3.94
